Experimental data: ChEMBL document CHEMBL2176945, “Novel TEMPO-PEG-RGDs conjugates remediate tissue damage induced by acute limb ischemia/reperfusion” (2012)
Active and inactive are the calls of the source. The rule behind the calls is not given here. Residues, ends and D or L forms follow the SMILES beside them. *: point of attachment. X1 = CC1(C)CC(C(=O)*)CC(C)(C)N1[O]

Assays:
[1] = test system: Rattus norvegicus; assay: Antithrombotic activity in Wistar rat model assessed as reduction of wet thrombus weight at 5 umol/kg after 15 mins; type: functional
[2] = test system: Rattus norvegicus; assay: (§1) Antiischemic activity in Wistar rat skeleton muscle assessed as protection against ischemic-reperfusion-induced irregular distribution of oxidative metabolism enzyme at 20 mg/kg, ip administered 15 minutes prior to induction of ischemia followed by administered 1 hr post reperfusion by using NADH staining by light microscopy analysis; type: functional, organism-based; design: dose 20 mg/kg; details: Muscle tissue
[3] = test system: Platelet; assay: Antiplatelet activity against ADP-induced platelet aggregation in rabbit plasma at 100 nM for 120 mins by aggregometeric analysis; type: functional; details: Oryctolagus cuniculus
[4] = test system: Platelet; assay: Antiplatelet activity against PAF-induced platelet aggregation in rabbit plasma at 100 nM for 120 mins by aggregometeric analysis; type: functional; details: Oryctolagus cuniculus
[5] = test system: Aorta; assay: Antioxidant activity in rat thoracic aortic strips assessed as free radical scavenging activity by measuring reversal of acetylcholine-induced relaxation; type: functional, tissue-based
[6] = test system: Rattus norvegicus; assay: Antiischemic activity against Wistar rat ischemic-reperfusion model assessed as wet/dry edema tissue ratio at 20 mg/kg, ip administered 15 minutes prior to induction of ischemia followed by administered 1 hr post reperfusion; type: functional
[7] = test system: Rattus norvegicus; assay: Antiischemic activity against Wistar rat ischemic-reperfusion model assessed decrease in MDA level in plasma at 20 mg/kg, ip administered 15 minutes prior to induction of ischemia followed by administered 1 hr post reperfusion; type: functional, organism-based; design: dose 20 mg/kg
[8] = test system: Rattus norvegicus; assay: Antiischemic activity against Wistar rat ischemic-reperfusion model assessed decrease in SOD level in plasma at 20 mg/kg, ip administered 15 minutes prior to induction of ischemia followed by administered 1 hr post reperfusion; type: functional, organism-based; design: dose 20 mg/kg
[9] = test system: Rattus norvegicus; assay: Antiischemic activity against Wistar rat ischemic-reperfusion model assessed decrease in lipid peroxidation at 20 mg/kg, ip administered 15 minutes prior to induction of ischemia followed by administered 1 hr post reperfusion; type: functional, organism-based; design: dose 20 mg/kg
[10] = test system: Rattus norvegicus; assay: as §1, with “necrotic and swollen cells” for “irregular distribution of oxidative metabolism enzyme”, “Gomori trichrome” for “NADH”; type: functional, organism-based; design: dose 20 mg/kg; details: Muscle tissue
[11] = test system: Rattus norvegicus; assay: as §1, with “membrane ruptures with dissolution” for “irregular distribution”, “myofibrils” for “oxidative metabolism enzyme”, “Gomori trichrome” for “NADH”; type: functional, organism-based; design: dose 20 mg/kg; details: Muscle tissue
[12] = test system: Rattus norvegicus; assay: as §1, with “interstitial edema” for “irregular distribution of oxidative metabolism enzyme”, “Gomori trichrome” for “NADH”; type: functional, organism-based; design: dose 20 mg/kg; details: Muscle tissue
[13] = test system: Rattus norvegicus; assay: as §1, with “cell necrosis” for “irregular distribution of oxidative metabolism enzyme”, “hematoxylin-eosin” for “NADH”; type: functional, organism-based; design: dose 20 mg/kg; details: Muscle tissue
[14] = test system: Rattus norvegicus; assay: as §1, with “muscle edema” for “irregular distribution of oxidative metabolism enzyme”, “hematoxylin-eosin” for “NADH”; type: functional, organism-based; design: dose 20 mg/kg; details: Muscle tissue
[15] = test system: Rattus norvegicus; assay: as §1, with “neutrophil accumulation” for “irregular distribution of oxidative metabolism enzyme”, “hematoxylin-eosin” for “NADH”; type: functional, organism-based; design: dose 20 mg/kg; details: Muscle tissue
[16] = test system: Rattus norvegicus; assay: as §1, with “ragged red fibrils formation” for “irregular distribution of oxidative metabolism enzyme”, “using modified” for “using”, “stain” for “staining”, “Light” for “light”; type: functional, organism-based; design: dose 20 mg/kg; details: Muscle tissue
[17] = test system: Rattus norvegicus; assay: (§2) Antiischemic activity in Wistar rat myocardia assessed as protection against ischemic-reperfusion-induced edema between wavy muscle fibre and surrounding blood vessels at 20 mg/kg, ip administered 15 minutes prior to induction of ischemia followed by administered 1 hr post reperfusion by using hematoxylin-eosin stain by light microscopy analysis; type: functional, organism-based; design: dose 20 mg/kg
[18] = test system: Rattus norvegicus; assay: as §2, with “pyknotic nuclei” for “edema between wavy muscle fibre and surrounding blood vessels”; type: functional, organism-based; design: dose 20 mg/kg
[19] = test system: Rattus norvegicus; assay: as §2, with “contraction band” for “edema between wavy muscle fibre and surrounding blood vessels”; type: functional, organism-based; design: dose 20 mg/kg
[20] = test system: Rattus norvegicus; assay: as §2, with “relaxed collagen” for “edema between wavy muscle”, “sourrounding indivisual myocardial tract” for “and surrounding blood vessels”, “modified gomori trichome” for “hematoxylin-eosin”; type: functional, organism-based; design: dose 20 mg/kg
[21] = test system: Rattus norvegicus; assay: (§3) Antiischemic activity in Wistar rat myocardia assessed as protection against ischemic-reperfusion-induced tightly woven network of collagen and mild edema between fibre at 20 mg/kg, ip administered 15 minutes prior to induction of ischemia followed by administered 1 hr post reperfusion by using modified NADH stain by light microscopy analysis; type: functional, organism-based; design: dose 20 mg/kg
[22] = test system: Rattus norvegicus; assay: as §3, with “gomori trichome staining” for “NADH stain”; type: functional, organism-based; design: dose 20 mg/kg
[23] = test system: Rattus norvegicus; assay: as §3, with “edema” for “edema between fibre”, “hematoxylin-eosin” for “modified NADH”, “Light” for “light”; type: functional, organism-based; design: dose 20 mg/kg
[24] = test system: Rattus norvegicus; assay: Antithrombotic activity in Wistar rat model assessed as reduction of dry thrombus weight at 5 umol/kg after 15 mins; type: functional, organism-based

Row | SMILES | Wet thrombus weight [1] | Activity [3] | Activity [4] | Activity [5] | Activity [24] | further results
1 | CC(=O)Oc1ccccc1C(=O)O [ASPIRIN] |  |  |  |  |  | Activity [1]: 27.6 mg
2 | CC1(C)CC(C(=O)NCCOCCOCCOCCOCCOCCOCCOCCNC(=O)COCC(=O)N[C@@H](CCCNC(=N)N)C(=O)NCC(=O)N[C@@H](CC(=O)O)C(=O)N[C@@H](Cc2ccccc2)C(=O)O)CC(C)(C)N1[O] | 20.7 mg | Active | Active | Active |  | Activity [2]: Active; Ratio [6]: 3.45; Activity [7]: Active; Activity [8]: Active; Activity [9]: Active; Activity [10]: Active; Activity [11]: Active; Activity [12]: Active; Activity [13]: Active; Activity [14]: Active; Activity [15]: Active; Activity [16]: Active; Activity [17]: Active; Activity [18]: Active; Activity [19]: Active; Activity [20]: Active; Activity [21]: Active; Activity [22]: Active; Activity [23]: Active
3 | CC1(C)CC(C(=O)N[C@@H](CCCNC(=N)N)C(=O)NCC(=O)N[C@@H](CC(=O)O)C(=O)N[C@@H](CO)C(=O)O)CC(C)(C)N1[O] (X1-RGDS-OH) |  | Active | Active | Active | 25.9 mg | 
4 | CC1(C)CC(O)CC(C)(C)N1[O] [TEMPOL] |  |  |  | Active |  | Ratio ([6]; route intraperitoneal): 4.49
5 | CC1(C)CC(C(=O)N[C@@H](CCCNC(=N)N)C(=O)NCC(=O)N[C@@H](CC(=O)O)C(=O)N[C@@H](Cc2ccccc2)C(=O)O)CC(C)(C)N1[O] (X1-RGDF-OH) |  | Active | Active | Active | 22.3 mg | 
6 | CC1(C)CC(C(=O)NCCOCCOCCOCCOCCOCCOCCOCCNC(=O)COCC(=O)N[C@@H](CCCNC(=N)N)C(=O)NCC(=O)N[C@@H](CC(=O)O)C(=O)N[C@@H](CO)C(=O)O)CC(C)(C)N1[O] | 23.6 mg | Active | Active | Active |  | 
7 | CC(C)[C@H](NC(=O)[C@H](CC(=O)O)NC(=O)CNC(=O)[C@H](CCCNC(=N)N)NC(=O)COCC(=O)NCCOCCOCCOCCOCCOCCOCCOCCNC(=O)C1CC(C)(C)N([O])C(C)(C)C1)C(=O)O | 24.7 mg | Active | Active | Active |  | 
8 | CC(C)[C@H](NC(=O)[C@H](CC(=O)O)NC(=O)CNC(=O)[C@H](CCCNC(=N)N)NC(=O)C1CC(C)(C)N([O])C(C)(C)C1)C(=O)O (X1-RGDV-OH) |  | Active | Active | Active | 25.1 mg | 
